2 compounds from US8466144B2, “Muscarinic antagonists with parp and sir modulating activity as cytoprotective agents” (Proteosys AG, priority 2004, dated 2013) can be followed below.

The test system of one experiment is PARP-1. The experiment can be described thus: Affinity tag enrichment from cell extracts (1D PAGE, MALDI-TOF, immunostaining). It is filed as binding. As for the experimental part: (§1) A reactive —SCN group is introduced which binds to lysines in or near the binding site of the compound. A biotinylated linker serves for enrichment of bound protein. The synthesis is described in FIG. 1.
Sequence of PARP-1 (P11103 215-1013 limits assumed): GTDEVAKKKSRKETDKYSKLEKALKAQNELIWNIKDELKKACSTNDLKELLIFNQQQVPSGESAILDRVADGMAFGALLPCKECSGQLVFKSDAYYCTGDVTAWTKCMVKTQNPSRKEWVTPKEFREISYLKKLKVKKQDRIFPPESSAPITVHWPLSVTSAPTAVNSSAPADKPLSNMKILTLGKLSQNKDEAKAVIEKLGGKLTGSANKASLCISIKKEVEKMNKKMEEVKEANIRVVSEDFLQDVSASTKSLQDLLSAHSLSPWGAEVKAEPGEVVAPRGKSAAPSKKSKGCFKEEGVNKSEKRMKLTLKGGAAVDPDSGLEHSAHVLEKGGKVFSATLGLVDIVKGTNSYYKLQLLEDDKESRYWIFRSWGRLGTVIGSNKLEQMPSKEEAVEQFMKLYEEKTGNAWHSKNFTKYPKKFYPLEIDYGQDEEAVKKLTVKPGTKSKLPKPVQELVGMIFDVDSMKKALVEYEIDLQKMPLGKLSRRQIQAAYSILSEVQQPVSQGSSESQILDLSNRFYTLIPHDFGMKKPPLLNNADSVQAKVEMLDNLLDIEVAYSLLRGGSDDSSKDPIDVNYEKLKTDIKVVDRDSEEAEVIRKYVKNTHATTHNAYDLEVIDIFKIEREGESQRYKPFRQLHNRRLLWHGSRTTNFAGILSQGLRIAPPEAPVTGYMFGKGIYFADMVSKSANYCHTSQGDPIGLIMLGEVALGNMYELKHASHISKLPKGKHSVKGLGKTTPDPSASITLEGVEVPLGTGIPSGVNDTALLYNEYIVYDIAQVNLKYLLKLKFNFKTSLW
(§2) The affinity reagent 11 was used to bind the target covalently from fractionations of crude cell extracts of D3 ES cells and other cell lines, subsequently the affinity purified material was analysed by 1D PAGE, immunostaining, and mass spectrometry.
(§3) The subsequent fractionation, isolation and further analysis was performed according to published standard procedures (Sommer et al. 2004). A commercial anti-PARP antibody was used for staining Western blots. Mass spectrometry for independent identification of pirenzepine-tagged proteins was performed as described elsewhere recently (Vogt et al., 2003, Cahill et al., 2003).
(§4) A reactive —SCN group binds to lysins in or near the binding site of the compound. A biotinylated linker serves for enrichment of bound protein. The final affinity reagent, thiocyanato-11-[2-(4-biocytinyl-piperazin-1-yl)-acetyl]-5,11-dihydro-benzo[e]pyrido [3,2-b] [1,4] diazepin-6-one (compound (11), FIG. 1), was used to bind the target covalently from fractionations of crude cell extracts of D3 embryonic stem cells, subsequently the affinity purified material was analysed by 1D PAGE (FIG. 3a), mass spectrometry and immunostaining. […]

The next experiment deals with T1, SIR-2 (Mus musculus, UniProt Q923E4).
T1 construct: endogenous in cells; host or cells: D3 embryonic stem cells / V56 embryonic stem cells (crude extract)
T1 sequence (Q923E4 1-737): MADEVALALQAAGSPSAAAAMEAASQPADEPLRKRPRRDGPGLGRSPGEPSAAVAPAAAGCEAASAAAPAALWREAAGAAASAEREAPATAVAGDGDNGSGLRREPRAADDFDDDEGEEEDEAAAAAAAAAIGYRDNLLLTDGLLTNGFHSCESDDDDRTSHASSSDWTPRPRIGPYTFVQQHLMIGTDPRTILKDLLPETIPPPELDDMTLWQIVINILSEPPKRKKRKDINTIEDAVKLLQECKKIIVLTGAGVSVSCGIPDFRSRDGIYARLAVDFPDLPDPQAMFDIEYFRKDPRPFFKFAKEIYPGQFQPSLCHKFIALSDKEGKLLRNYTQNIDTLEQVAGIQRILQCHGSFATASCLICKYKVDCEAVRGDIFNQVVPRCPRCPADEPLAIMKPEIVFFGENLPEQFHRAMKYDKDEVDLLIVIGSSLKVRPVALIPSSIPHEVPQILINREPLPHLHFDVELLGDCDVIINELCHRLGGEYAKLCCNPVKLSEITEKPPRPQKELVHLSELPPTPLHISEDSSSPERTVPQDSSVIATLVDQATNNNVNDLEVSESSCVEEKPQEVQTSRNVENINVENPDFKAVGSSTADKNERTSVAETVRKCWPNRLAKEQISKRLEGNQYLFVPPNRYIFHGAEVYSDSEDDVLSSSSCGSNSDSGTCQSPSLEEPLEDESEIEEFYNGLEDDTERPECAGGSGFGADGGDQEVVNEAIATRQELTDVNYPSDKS
Described as above. It is filed as binding. As for the experimental part:
as §1, §2, §3, §4

The test system of the next experiment is A 549 cells. Nature of the experiment: LPS challenge, cell survival by Trypan Blue. It is filed as cell-based. Particulars: LPS 100 ng/ml for 60 min. As for the experimental part: (§5) Cell pellets were further investigated by Western blot staining with anti Cox-2 and anti iNOS antibodies of 1D polyacrylamide gels.
(§6) Cell survival was assessed by Trypan Blue staining.

The subject of experiment [1] is undifferentiated V56 embryonic stem cells. The experiment can be described thus: LPS challenge, cell survival by Trypan Blue. The format is cell-based. Conditions: LPS 100 ng/ml for 60 min. As for the experimental part: as §5, §6
The next experiment concerns 3T3 fibroblasts. The experiment can be described thus: LPS challenge, cell survival by Trypan Blue. It is filed as cell-based. Particulars: LPS 100 ng/ml for 60 min. As for the experimental part:
as §5, §6

For experiment [2], the system named is neurally differentiated V56 embryonic stem cells. The experiment can be described thus: LPS challenge, cell survival by Trypan Blue. Conditions: LPS 100 ng/ml for 60 min. The format is cell-based. As to the method: as §5, §6
Experiment [3] deals with neurons from D3 embryonic stem (ES) cells. The experiment can be described thus: Cell culture model for chemical ischemia and neuroprotection (calcium imaging of surviving neurons). The format is cell-based, mice. Conditions: β-methyl-cyclodextrin or filipin.
Description: For all experiments, D3 embryonic stem (ES) cells derived from 129/sv mice [Okabe et al., 1996] were cultivated for 12 days, with passages on days 2, 4, 7 and 9 as described previously [Sommer et al., 2004]. Insult conditions: Cells (24-well plates) were pre-incubated with or without 20 nM EPO in fresh medium for 24 hours at 37° C. Cells were rinsed once with low K^+ solution (140 mM NaCl, 4.7 mM KCl, 1.2 mM KH2PO4, 2.5 mM CaCl2, 1.2 mM MgSO4, 11 mM glucose, 15 mM Hepes-NaOH, pH 7.35). Cells (either with or without EPO pre-incubation) were incubated for up to 45 min (37° C.) with either low K^+ solution or with glucose-free low K^+ solution supplemented with 1 mM KCN (chemical ischemia solution [Kume et al., 2002]). Vitality control to asses numbers of surviving neurons was performed by a brief stimulation with a low dose of glutamate (10 μM).
Functional tests by calcium imaging were performed essentially as described [Sommer et al., 2004]. Briefly, cells were loaded with 2 μM of fura-2 AM in DMEM for 45 min at 37° C. in the dark. Measurements of relative changes in [Ca^2+] were made on an inverted epifluorescence microscope (Olympus IX70 S1F2) with a Polychrom IV Monochromator (Xe-lamp, USHIO). Excitation wavelengths (λ1, λ2) and the emission wavelength were 340, 380 and 510 nm, respectively. […]
Experiment [4] addresses T2, recombinant monomeric PARP-1 (Homo sapiens, UniProt P09874).
T2 construct: purchased R&D Systems TA4669
Nature of the experiment: PARP inhibition assay (R&D Systems). The format is biochemical. Conditions: FIG. 4b. From the text: A PARP inhibition assay from R&D Systems was used (Cat.No. TA4669) according to instructions of the supplier.
Under cellular conditions PARP-1 poly-ADP-ribosylates a host of nuclear proteins, including topoisomerase 1, 14-3-3 g and PARP-1 itself. Thus under cellular conditions, the self-modification of PARP-1 and dimerization are regulating its activity, moreover there is a tight interplay with PARG (poly-ADP- ribosyl-glycohydroxylase).

T2 sequence (P09874 whole entry): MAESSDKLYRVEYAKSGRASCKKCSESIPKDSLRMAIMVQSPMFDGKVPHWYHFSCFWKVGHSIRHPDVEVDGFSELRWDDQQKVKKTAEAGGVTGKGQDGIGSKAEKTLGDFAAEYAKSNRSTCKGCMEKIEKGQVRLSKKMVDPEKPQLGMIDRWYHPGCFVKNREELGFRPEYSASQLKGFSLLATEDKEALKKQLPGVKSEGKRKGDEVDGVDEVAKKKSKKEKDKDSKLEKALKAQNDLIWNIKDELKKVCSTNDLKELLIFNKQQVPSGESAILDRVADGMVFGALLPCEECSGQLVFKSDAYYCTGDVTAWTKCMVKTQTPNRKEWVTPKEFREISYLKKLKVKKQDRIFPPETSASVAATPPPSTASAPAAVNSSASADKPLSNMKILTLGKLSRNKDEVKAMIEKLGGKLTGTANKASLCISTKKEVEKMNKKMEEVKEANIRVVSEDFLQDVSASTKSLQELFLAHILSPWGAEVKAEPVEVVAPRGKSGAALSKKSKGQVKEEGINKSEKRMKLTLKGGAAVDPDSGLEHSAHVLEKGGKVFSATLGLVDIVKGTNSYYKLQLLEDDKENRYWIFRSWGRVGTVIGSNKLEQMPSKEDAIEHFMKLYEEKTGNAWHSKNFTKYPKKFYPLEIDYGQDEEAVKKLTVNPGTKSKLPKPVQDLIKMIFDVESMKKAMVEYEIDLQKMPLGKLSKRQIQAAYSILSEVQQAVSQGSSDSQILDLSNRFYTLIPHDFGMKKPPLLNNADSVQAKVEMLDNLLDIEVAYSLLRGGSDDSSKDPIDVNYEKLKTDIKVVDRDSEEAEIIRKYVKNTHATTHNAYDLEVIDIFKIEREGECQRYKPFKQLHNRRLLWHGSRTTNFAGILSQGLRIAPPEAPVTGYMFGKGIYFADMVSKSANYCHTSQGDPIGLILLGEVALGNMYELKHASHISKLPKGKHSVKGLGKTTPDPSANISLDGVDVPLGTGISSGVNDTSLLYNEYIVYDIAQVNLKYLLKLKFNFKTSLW

With “thiocyanato 11-[2-(4-biocytinyl-piperazin-1-yl)-acetyl]-5,11-dihydro-benzo[e]pyrido[3,2-b][1,4]diazepin-6-one [affinity tag]”, the “interaction with PARP-1” value with PARP-1 is “interacts with both proteins”. At SIR-2, the “interaction with SIR-2” value was “interacts with both proteins”.

Regarding `CN1CCN(CC(=O)N2c3ccccc3C(=O)Nc3cccnc32)CC1` [Pirenzepine], the “protection from LPS challenge” value (in the experiment on A 549 cells; in experiment [1]; in the experiment on 3T3 fibroblasts; in experiment [2]) was “protect from LPS challenge” throughout. Besides, the “neuroprotective effect in the presence of raft-disrupting conditions” value in experiment [3] is given as “does not occur”. Besides, the “PARP-1 inhibition (in words)” value in experiment [4] is reported as “rather weak PARP-1 inhibitor”.
